Source: patent US7094429B2, “Process for preparing tannate liquid and semi-solid dosage forms” (Kiel Laboratories, Inc., priority 2001, dated 2006)

Assays:
[1] = Conversion process: active dissolved in supernatant of centrifuged MAS/tannic acid conversion samples; details: for Assay (% Dissolved) 10 mins / Assay (% Dissolved) 20 mins / Assay (% Dissolved) 30 mins: in-situ tannate conversion, centrifuged at 6500 rpm; for Assay (% Dissolved) 10 mins: supernatant after 10 min mixing; for Assay (% Dissolved) 20 mins: supernatant after 20 min mixing; for Assay (% Dissolved) 30 mins: supernatant after 30 min mixing
Procedure: The active solution of carbetapentane citrate is prepared by dissolving 24.4 g of carbetapentane citrate into 60 ml of water. 530 ml of purified water is placed in a mixing tank and 53.7 g of MAS is added in small portions while mixing the water to form a dispersion. Once the dispersion is uniform and lump-free, 46.7 g of tannic acid (TA), (three times that of the free base of the active), is folded into the dispersion using a planetary mixer with a sweep blade. […] The salt solution is then added in small portions, while continuing to stir the MAS/tannic acid dispersion using the planetary mixer. After all of the salt solution is added, the weight is made up to 800 g with purified water. Mixing is continued and 5 g samples of the conversion after ten, twenty and thirty minutes of mixing are taken in a centrifuge tube. The samples are subsequently centrifuged at 6500 rpm and the resulting supernatant solution is assayed for the presence of active. At the end of thirty minutes, a 10 g sample of the conversion is taken for assay of the actives.

[2] = cited from earlier work

| SMILES | Assay (% Dissolved) 10 mins [1] | Assay (% Dissolved) 20 mins [1] | Assay (% Dissolved) 30 mins [1] | soluble in water [2] | amount of active ingredient present in solution at the ten, twenty and thirty minute mixing times ([1]; in-situ tannate conversion in MAS/tannic acid dispersion) |
| --- | --- | --- | --- | --- | --- |
| CCN(CC)CCOCCOC(=O)C1(c2ccccc2)CCCC1 [Carbetapentane] | 0.08% | 0.08% | 0.09% |  |  |
| CN(C)CCC(c1ccc(Cl)cc1)c1ccccn1 (centres unmarked) [Chlorpheniramine] | 0.12% | 0.13% | 0.14% |  |  |
| CNC[C@H](O)c1cccc(O)c1.Cl [Phenylephrine HCI] |  |  |  | about 100.0% | more than 47.0% |
| CNC[C@H](O)c1cccc(O)c1 [Phenylephrine] | 37.14% | 47.6% | 47.6% |  |  |
| COc1ccc(CN(CCN(C)C)c2ccccn2)cc1 [Pyrilamine] | 0.10% | 0.10% | 0.11% |  |  |
